According to patent US20260125400A1, “TYK2 DEGRADERS AND USES THEREOF” (Kymera Therapeutics, Inc., priority 2023, published 2026):

target: T1, TYK2 (Homo sapiens, UniProt P29597); test: TYK2 MSD degradation in OCI-LY10 cells; assay type: cell-based; conditions: TYK2 degradation in OCI-LY10 cells, 4 to 24 hours incubation
T1 construct: Degradation of TYK2 in cells was quantitatively measured using Meso Scale Discovery (MSD) technology; endogenous in cells; host or cells: OCI-LY10
In short: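 OCI-LY10 cells were treated with 9-dose 1:3 series (top 1 to 10 μM final) for 4 to 24 hours at 37° C. Lysate TYK2 quantified by MSD sandwich immunoassay; DC50 and Dmax from four-parameter inhibitor vs. response fit.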

T1 sequence (P29597 whole entry): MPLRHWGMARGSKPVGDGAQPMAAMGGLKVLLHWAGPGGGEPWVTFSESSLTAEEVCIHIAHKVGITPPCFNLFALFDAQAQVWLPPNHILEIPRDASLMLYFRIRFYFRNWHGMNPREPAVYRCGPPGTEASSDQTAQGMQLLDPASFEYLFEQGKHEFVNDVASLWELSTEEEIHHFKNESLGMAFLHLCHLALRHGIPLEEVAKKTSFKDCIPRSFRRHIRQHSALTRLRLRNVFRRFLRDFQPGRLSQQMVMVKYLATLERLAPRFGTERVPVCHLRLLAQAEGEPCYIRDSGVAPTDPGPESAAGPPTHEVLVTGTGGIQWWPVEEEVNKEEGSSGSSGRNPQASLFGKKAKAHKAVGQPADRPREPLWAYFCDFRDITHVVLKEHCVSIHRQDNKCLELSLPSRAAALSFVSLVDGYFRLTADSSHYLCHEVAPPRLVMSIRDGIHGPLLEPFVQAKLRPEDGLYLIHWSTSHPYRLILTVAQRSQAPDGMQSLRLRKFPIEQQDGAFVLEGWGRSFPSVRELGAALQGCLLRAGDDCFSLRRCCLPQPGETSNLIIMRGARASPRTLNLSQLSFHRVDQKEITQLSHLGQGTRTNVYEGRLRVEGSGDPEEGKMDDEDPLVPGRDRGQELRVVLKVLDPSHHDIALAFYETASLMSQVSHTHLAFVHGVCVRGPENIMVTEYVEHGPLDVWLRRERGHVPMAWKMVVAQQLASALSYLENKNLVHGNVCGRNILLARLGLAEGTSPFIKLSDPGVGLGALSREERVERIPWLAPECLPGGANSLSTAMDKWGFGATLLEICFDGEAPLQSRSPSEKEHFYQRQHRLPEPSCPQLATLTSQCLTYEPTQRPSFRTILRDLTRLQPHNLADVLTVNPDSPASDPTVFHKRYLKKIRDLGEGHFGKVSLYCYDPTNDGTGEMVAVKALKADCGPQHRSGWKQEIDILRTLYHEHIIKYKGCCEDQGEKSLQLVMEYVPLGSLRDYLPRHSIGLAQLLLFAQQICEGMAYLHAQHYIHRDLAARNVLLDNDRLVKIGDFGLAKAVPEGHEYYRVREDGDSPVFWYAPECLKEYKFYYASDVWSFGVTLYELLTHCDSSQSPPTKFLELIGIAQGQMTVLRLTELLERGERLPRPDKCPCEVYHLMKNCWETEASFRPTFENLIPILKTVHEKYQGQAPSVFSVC

SMILES	TYK2 MSD OCI-LY10 Dmax %
CNc1cc(N2CCc3c(CN4CCC(N5CCC6(CCN(C(=O)c7cc(N8CCC(=O)NC8=O)c(Cl)cc7F)CC6)CC5)C(F)(F)C4)cccc32)nn2c(C(=O)N[C@@H]3CC[C@H]3OC)cnc12 (some centres unmarked) [I-1084]	A (A (>90%))
CNc1cc(N2CCc3c(-c4ncc(CN5CC6(CCN(C(=O)c7cc(N8CCC(=O)NC8=O)c(C)cc7F)CC6(F)F)C5)cc4F)cccc32)nn2c(C(=O)NC3CCC3OC)cnc12 (centres unmarked) [I-1007]	A (A (>90%))
CNc1cc(N2CCc3c(CN4CCC(CN5CCN(C(=O)c6ccc(Cl)c(N7CCC(=O)NC7=O)c6)CC5)CC4)cccc32)nn2c(C(=O)N[C@@H]3C[C@@H]3F)cnc12 [I-891]	D (D (<50%))
CNc1cc(N2CCc3c(-c4ccc(CN5CCC6(CCC(N(C)c7ccc(Cl)c(N8CCC(=O)NC8=O)c7)CC6)CC5)cn4)cccc32)nn2c(C(=O)N[C@@H]3CC[C@H]3OC)cnc12 [I-1009]	B (B (90 to >75%))
CNc1cc(N2CCc3c(-c4ccc(CN5CCC6(CCN(C(=O)c7ccc(Cl)c(N8CCC(=O)NC8=O)c7)CC6)C(F)(F)C5)cn4)cccc32)nn2c(C(=O)N[C@@H]3CC[C@H]3C(F)(F)F)cnc12 [I-1108]	D (D (<50%))
CNc1cc(N2CCc3c(CN4CC[C@@H](N5CCC6(CCN(C(=O)c7cc(Cl)c(Cl)c(N8CCC(=O)NC8=O)c7)CC6)CC5)C(F)(F)C4)cccc32)nn2c(C(=O)N[C@@H]3CC[C@H]3OC)cnc12 [I-1145]	A (A (>90%))
CNc1cc(N2CCc3c(-c4ncc(CN5CC6(CCN(C(=O)c7ccc(Cl)c(N8CCC(=O)NC8=O)c7)CC6(F)F)C5)cc4F)cccc32)nn2c(C(=O)N[C@@H]3CC[C@H]3OC)cnc12 [I-1154]	A (A (>90%))
CNc1cc(N2CCc3c(CN4CC[C@H](N5CCC6(CC5)CN(C(=O)c5cc(Cl)c(C)c(N7CCC(=O)NC7=O)c5)C6)C(F)(F)C4)cccc32)nn2c(C(=O)N[C@@H]3CC[C@H]3OC)cnc12 [I-1142]	A (A (>90%))
CNc1cc(N2CCc3c(-c4ccc(CN5CCC6(CCN(C(=O)c7ccc(Cl)c(N8CCC(=O)NC8=O)c7)CC6)C(F)(F)C5)cn4)cccc32)nn2c(C(=O)N[C@@H]3C[C@@H]3F)cnc12 [I-901]	A (A (>90%))
CNc1cc(N2CCc3c(-c4ccc(CN5CC6(CCN(C(=O)c7ccc(Cl)c(N8CCC(=O)NC8=O)c7)CC6(F)F)C5)cn4)cccc32)nn2c(C(=O)N[C@@H]3C[C@@H]3F)cnc12 [I-67]	A (A (>90%))
CNc1cc(N2CCc3c(-c4cc(CN5CCN(C(=O)c6ccc(Cl)c(N7CCC(=O)NC7=O)c6)CC5)ccn4)cccc32)nn2c(C(=O)N[C@@H]3C[C@@H]3F)cnc12 [I-78]	D (D (<50%))
CNc1cc(N2CCc3c(-c4ncc(CN5CC6(CCN(C(=O)c7cc(Cl)c(C)c(N8CCC(=O)NC8=O)c7)CC6(F)F)C5)cc4F)cc(F)cc32)nn2c(C(=O)N[C@@H]3C[C@@H]3F)cnc12 [I-944]	A (A (>90%))
CNc1cc(N2CCc3c2cccc3C23CC(CN4CCN(C5CCN(C(=O)c6ccc(Cl)c(N7CCC(=O)NC7=O)c6)CC5(F)F)CC4)(C2)C3)nn2c(C(=O)N[C@@H]3C[C@@H]3F)cnc12 (some centres unmarked) [I-832]	A (A (>90%))
CNc1cc(N2CCc3c(-c4ccc(CN5CC6(CCN(C(=O)c7ccc(Cl)c(N8CCC(=O)NC8=O)c7)CC6)C5)nc4)cccc32)nn2c(C(=O)N[C@@H]3C[C@@H]3F)cnc12 [I-247]	B (B (90 to >75%))
CNc1cc(N2CCc3c(CN4CC[C@@H](N5CCC6(CC5)CN(C(=O)c5cc(Cl)c(C)c(N7CCC(=O)NC7=O)c5)C6)C(F)(F)C4)cccc32)nn2c(C(=O)N[C@@H]3CC[C@H]3OC)cnc12 [I-1141]	A (A (>90%))
CNc1cc(N2CCc3c(-c4ccc(CN5CC6(CCN(C(=O)c7ccc(Cl)c(N8CCC(=O)NC8=O)c7)CC6(F)F)C5)cn4)cc(C)cc32)nn2c(C(=O)N[C@@H]3C[C@@H]3F)cnc12 [I-852]	B (B (90 to >75%))
CNc1cc(N2CCc3c(CN4CCC(N5CCC6(CCN(C(=O)c7cc(N8CCC(=O)NC8=O)c(C)cc7Cl)CC6)CC5)C(F)(F)C4)cccc32)nn2c(C(=O)N[C@@H]3C[C@@H]3F)cnc12 (some centres unmarked) [I-845]	A (A (>90%))
CNc1cc(N2CC3(CCN(CC4CCN(c5ccc6c(c5)n(C)c(=O)n6C5CCC(=O)NC5=O)CC4)CC3)c3ccccc32)nn2c(C(=O)NC3CC3)cnc12 (centres unmarked) [I-24]	D (D (<50%))
CNc1cc(N2CCc3c(-c4ncc(CN5CC6(CCN(C(=O)c7cc(N8CCC(=O)NC8=O)c(C)cn7)CC6(F)F)C5)cc4F)cccc32)nn2c(C(=O)N[C@@H]3C[C@@H]3F)cnc12 [I-1012]	A (A (>90%))

same assay, conditions: TYK2 degradation in OCI-LY10 cells, 4 to 24 hours incubation, read-out: TYK2 MSD OCI-LY10 Rel-DC50

SMILES	DC50 [nM]
CNc1cc(N2CCc3c(CN4CCC(N5CCC6(CCN(C(=O)c7cc(N8CCC(=O)NC8=O)c(Cl)cc7F)CC6)CC5)C(F)(F)C4)cccc32)nn2c(C(=O)N[C@@H]3CC[C@H]3OC)cnc12 (some centres unmarked) [I-1084]	< 1
CNc1cc(N2CCc3c(-c4ncc(CN5CC6(CCN(C(=O)c7cc(N8CCC(=O)NC8=O)c(C)cc7F)CC6(F)F)C5)cc4F)cccc32)nn2c(C(=O)NC3CCC3OC)cnc12 (centres unmarked) [I-1007]	< 1
CNc1cc(N2CCc3c(CN4CCC(CN5CCN(C(=O)c6ccc(Cl)c(N7CCC(=O)NC7=O)c6)CC5)CC4)cccc32)nn2c(C(=O)N[C@@H]3C[C@@H]3F)cnc12 [I-891]	> 100
CNc1cc(N2CCc3c(-c4ccc(CN5CCC6(CCC(N(C)c7ccc(Cl)c(N8CCC(=O)NC8=O)c7)CC6)CC5)cn4)cccc32)nn2c(C(=O)N[C@@H]3CC[C@H]3OC)cnc12 [I-1009]	< 10
CNc1cc(N2CCc3c(-c4ccc(CN5CCC6(CCN(C(=O)c7ccc(Cl)c(N8CCC(=O)NC8=O)c7)CC6)C(F)(F)C5)cn4)cccc32)nn2c(C(=O)N[C@@H]3CC[C@H]3C(F)(F)F)cnc12 [I-1108]	> 100
CNc1cc(N2CCc3c(CN4CC[C@@H](N5CCC6(CCN(C(=O)c7cc(Cl)c(Cl)c(N8CCC(=O)NC8=O)c7)CC6)CC5)C(F)(F)C4)cccc32)nn2c(C(=O)N[C@@H]3CC[C@H]3OC)cnc12 [I-1145]	< 1
CNc1cc(N2CCc3c(-c4ncc(CN5CC6(CCN(C(=O)c7ccc(Cl)c(N8CCC(=O)NC8=O)c7)CC6(F)F)C5)cc4F)cccc32)nn2c(C(=O)N[C@@H]3CC[C@H]3OC)cnc12 [I-1154]	< 1
CNc1cc(N2CCc3c(CN4CC[C@H](N5CCC6(CC5)CN(C(=O)c5cc(Cl)c(C)c(N7CCC(=O)NC7=O)c5)C6)C(F)(F)C4)cccc32)nn2c(C(=O)N[C@@H]3CC[C@H]3OC)cnc12 [I-1142]	< 1
CNc1cc(N2CCc3c(-c4ccc(CN5CCC6(CCN(C(=O)c7ccc(Cl)c(N8CCC(=O)NC8=O)c7)CC6)C(F)(F)C5)cn4)cccc32)nn2c(C(=O)N[C@@H]3C[C@@H]3F)cnc12 [I-901]	< 1
CNc1cc(N2CCc3c(-c4ccc(CN5CC6(CCN(C(=O)c7ccc(Cl)c(N8CCC(=O)NC8=O)c7)CC6(F)F)C5)cn4)cccc32)nn2c(C(=O)N[C@@H]3C[C@@H]3F)cnc12 [I-67]	< 1
CNc1cc(N2CCc3c(-c4cc(CN5CCN(C(=O)c6ccc(Cl)c(N7CCC(=O)NC7=O)c6)CC5)ccn4)cccc32)nn2c(C(=O)N[C@@H]3C[C@@H]3F)cnc12 [I-78]	< 10
CNc1cc(N2CCc3c(-c4ncc(CN5CC6(CCN(C(=O)c7cc(Cl)c(C)c(N8CCC(=O)NC8=O)c7)CC6(F)F)C5)cc4F)cc(F)cc32)nn2c(C(=O)N[C@@H]3C[C@@H]3F)cnc12 [I-944]	< 1
CNc1cc(N2CCc3c2cccc3C23CC(CN4CCN(C5CCN(C(=O)c6ccc(Cl)c(N7CCC(=O)NC7=O)c6)CC5(F)F)CC4)(C2)C3)nn2c(C(=O)N[C@@H]3C[C@@H]3F)cnc12 (some centres unmarked) [I-832]	< 1
CNc1cc(N2CCc3c(-c4ccc(CN5CC6(CCN(C(=O)c7ccc(Cl)c(N8CCC(=O)NC8=O)c7)CC6)C5)nc4)cccc32)nn2c(C(=O)N[C@@H]3C[C@@H]3F)cnc12 [I-247]	< 10
CNc1cc(N2CCc3c(CN4CC[C@@H](N5CCC6(CC5)CN(C(=O)c5cc(Cl)c(C)c(N7CCC(=O)NC7=O)c5)C6)C(F)(F)C4)cccc32)nn2c(C(=O)N[C@@H]3CC[C@H]3OC)cnc12 [I-1141]	< 1
CNc1cc(N2CCc3c(-c4ccc(CN5CC6(CCN(C(=O)c7ccc(Cl)c(N8CCC(=O)NC8=O)c7)CC6(F)F)C5)cn4)cc(C)cc32)nn2c(C(=O)N[C@@H]3C[C@@H]3F)cnc12 [I-852]	< 10
CNc1cc(N2CCc3c(CN4CCC(N5CCC6(CCN(C(=O)c7cc(N8CCC(=O)NC8=O)c(C)cc7Cl)CC6)CC5)C(F)(F)C4)cccc32)nn2c(C(=O)N[C@@H]3C[C@@H]3F)cnc12 (some centres unmarked) [I-845]	< 1
CNc1cc(N2CC3(CCN(CC4CCN(c5ccc6c(c5)n(C)c(=O)n6C5CCC(=O)NC5=O)CC4)CC3)c3ccccc32)nn2c(C(=O)NC3CC3)cnc12 (centres unmarked) [I-24]	> 100
CNc1cc(N2CCc3c(-c4ncc(CN5CC6(CCN(C(=O)c7cc(N8CCC(=O)NC8=O)c(C)cn7)CC6(F)F)C5)cc4F)cccc32)nn2c(C(=O)N[C@@H]3C[C@@H]3F)cnc12 [I-1012]	< 1
